Test results reported in US3974157A, “1-(Amino-alkyl)-2-aryl-cyclohexane alcohols and esters” (Pennwalt Corporation, priority 1975, dated 1976).
Where a name gives a salt, the structure may show the parent alone.

Assays:
Format in all cases: in vivo
[1] = phenylbenzoquinone (PBQ) writhing method (analgesia in mice, Sigmund et al); conditions: for ED50: Mus musculus
Protocol: (§1) Analgesia was assessed in mice utilizing the hot plate method of Eddy and Leimbach, Journal Pharmacology Expt. Therap., 107, 385, 1953, and/or the phenylbenzoquinone writhing method described by Sigmund et al, Proc. Soc. Exptl. Biol. Med., 95, 729, 1957. The hot plate method is based upon the delay in reaction time, following administration of an active analgesic when animals are placed on a heated […] plate maintained at constant temperature. Thus, the numbers of mice showing elevation of response times over control values after administration of various doses of an unknown compound are used to determine the median effective dose (ED50), which is that dose affecting 50% of the animals. The writhing method is based upon inhibition by an analgesic of the response which occurs when the chemical agent phenylbenzoquinone is injected intraperitoneally. This response is characterized by a twisting or stretching of the body and is referred to as writhing. Following administration of an analgesic or unknown compound into mice, the numbers of animals not responding to the phenylbenzoquinone challenge by writhing are determined.

[2] = test system: arrhythmia produced in dogs or cats by ouabain; experiment: anti-arrhythmic activity: preventing or reversing the arrhythmia produced by ouabain; conditions: for Arrhythmia Reversal Time: ouabain arrhythmia
Protocol: Anti-arrhythmic activity was determined by measuring the effect of the test compound in preventing or reversing the arrhythmia produced in dogs or cats by ouabain. In the test method, the animal was pretreated with 10 mg/kg (i.v.) of the test compound. The animal was then given 15 micrograms/kg of ouabain (i.v.) followed by doses of 10 micrograms/kg of ouabain at 15-minute intervals (the last dose of ouabain could be less than 10 micrograms/kg) until an arrhythmia was produced which lasted for 10 minutes. The animal was then given 5 mg/kg (i.v.) of test compound. If the arrhythmia was not reversed after 3 minutes, 1 mg/kg of xylocaine was given (i.v.) to reverse the arrhythmia. If the arrhythmia was reversed within 3 minutes by the test compound, the period of time during which the test compound effected reversal was measured (Arrythmia Reversal Time).

[3] = hot plate method (analgesia in mice, Eddy and Leimbach); conditions: Mus musculus
Protocol: as §1

[4] = test system: arrhythmia produced in dogs or cats by ouabain; experiment: anti-arrhythmic activity: preventing or reversing the arrhythmia produced by ouabain; conditions: amount compound 4 mg/kg
[5] = po, mice, phenylbenzoquinone writhing, oral route, read-out: Analgesic Tests ED50 PBQ P.O.
[6] = sc, mice, phenylbenzoquinone writhing, subcutaneous route, read-out: Analgesic Tests ED50 PBQ S.C.
[7] = dogs or cats, amount compound 5 mg/kg
[8] = ouabain given i.v. until an arrhythmia lasting 10 minutes, after 10 mg/kg i.v. pretreatment with test compound
[9] = ip, mice, intraperitoneal route, read-out: Analgesic Tests ED50 Hot Plate I.P.
[10] = mice, oral route, read-out: Analgesic Tests ED50 Hot Plate P.O.
[11] = mice, phenylbenzoquinone writhing, oral route
[12] = mice, phenylbenzoquinone writhing, subcutaneous route

Compound	ED50 [1, 5]	ED50 [1, 6]	also measured
COc1ccc(C2CCCCC2(OC(C)=O)C(C)CN(C)C)cc1OC.Cl (stereo not drawn) [XXXIII, 2-(3,4-Dimethoxyphenyl)-1-(2-dimethylamino-1-methylethyl)cyclohexyl acetate hydrochloride]	> 100 mg/kg	> 30 mg/kg	Arrhythmia Reversal Time [2, 7]: 30 min; Amount Ouabain [2, 8]: 70 µg/kg
COc1ccc(C2CCCCC2(OC(C)=O)C(C)CN(C)C)cc1 (stereo not drawn) [Example XXV, 1-(2-Dimethylamino-1-methylethyl)-2-(p-methoxyphenyl)-cyclohexylacetate hydrochloride]	> 100 mg/kg	> 30 mg/kg	–
CC(=O)OC1(C(C)CN(C)C)CCCCC1c1ccc(O)cc1.Cl (stereo not drawn) [XXXI, 1-(2-Dimethylamino-1-methylethyl)-2-(p-hydroxyphenyl)cyclohexyl acetate hydrochloride]	> 100 mg/kg	> 100 mg/kg	–
CC(N)C1(O)CCCCC1c1ccccc1.Cl (stereo not drawn) [Example XXIII, 1-(1-Aminoethyl)-2-phenylcyclohexanol hydrochloride]	> 100 mg/kg	> 30 mg/kg	Arrhythmia Reversal Time [2, 7]: 5 min; Amount Ouabain [2, 8]: 95 µg/kg
CN1CC[C@]23c4c5ccc(O)c4O[C@H]2[C@@H](O)C=C[C@H]3[C@H]1C5 [Morphine, reference compound]	–	–	ED50 ([1]; po, read-out: Analgesic Tests ED50 PBQ P.O.): 2.6 mg/kg; ED50 ([1]; sc, read-out: Analgesic Tests ED50 PBQ S.C.): 0.5 mg/kg; ED50 ([3]; ip, read-out: Analgesic Tests ED50 Hot Plate I.P.): 1.8 mg/kg; ED50 ([3]; po, read-out: Analgesic Tests ED50 Hot Plate P.O.): 18 mg/kg
C=CCN(CC=C)CC(C)C1(OC(C)=O)CCCCC1c1ccccc1 (stereo not drawn) [Example XVI, 1-(2-Diallylamino-1-methylethyl)-2-phenylcyclohexyl acetate]	> 30 mg/kg	> 3 mg/kg	–
CC(=O)OC1(C(C)CN2CCOCC2)CCCCC1c1ccccc1.Cl (stereo not drawn) [XIX, 1-(1-Methyl-2-morpholinoethyl)2-phenylcyclohexyl acetate hydrochloride]	40 mg/kg	56.2 mg/kg	–
CC(CN(C)C)C1(O)CCCCC1c1ccccc1 (stereo not drawn) [Example XI, 1-(2-Dimethylamino-1-methylethyl)-2-phenylcyclohexanol-p-toluenesulfonate]	56 mg/kg	–	Arrhythmia Reversal Time [4]: 5 min; Amount Ouabain [2, 8]: 88 µg/kg; ED50 [3, 9]: 32 mg/kg; ED50 [3, 10]: 56 mg/kg
CC(=O)OC1(C(C)CN2CCN(c3ccccc3)CC2)CCCCC1c1ccccc1.Cl (stereo not drawn) [Example XXI, 1-(1-Methyl-2-[4-phenyl-1-piperazinyl]ethyl)-2-phenylcyclohexyl acetate hydrochloride]	5.9 mg/kg	> 100 mg/kg	–
CCOC(=O)C1(c2ccccc2)CCN(C)CC1 [Meperidine, reference compound]	18 mg/kg	1.7 mg/kg	ED50 [3, 9]: 5.8 mg/kg; ED50 [3, 10]: 81 mg/kg
CC(=O)OC1(CCN(C)C)CCCCC1c1ccccc1 (stereo not drawn) [Example XV, 1-(2-Dimethylaminoethyl)-2-phenylcyclohexyl acetate cyclohexylsulfamate]	> 30 mg/kg	> 10 mg/kg	–
CC(CN1CCCC1)C1(O)CCCCC1c1ccccc1 (stereo not drawn) [Example III, 1-(1-Methyl-2-pyrrolidinoethyl)-2-phenylcyclohexanol]	> 100 mg/kg	~30 mg/kg	Arrhythmia Reversal Time [2, 7]: 5 min; Amount Ouabain [2, 8]: 100 µg/kg
C=CCN(C)CC(C)C1(OC(C)=O)CCCCC1c1ccccc1 (stereo not drawn) [XIII, 1-(2-Allylmethylamino-1-methylethyl)-2-phenylcyclohexyl acetate]	~100 mg/kg	~30 mg/kg	–
CNCC(C)C1(O)CCCCC1c1ccccc1.Cl (stereo not drawn) [Example XXVI, 1-(2-Methylamino-1-methylethyl)-2-phenylcyclohexanol hydrochloride]	> 30 mg/kg	> 10 mg/kg	–
COc1ccc(C2CCCCC2(O)C(C)CN(C)C)cc1.Cl (stereo not drawn) [Example XVII, 1-(2-Dimethylamino-1-methylethyl)-2-(p-methoxyphenyl)-cyclohexanol hydrochloride]	> 100 mg/kg	> 30 mg/kg	Arrhythmia Reversal Time [2, 7]: 30 min; Amount Ouabain [2, 8]: 80 µg/kg
CCN(CC)CC(=O)Nc1c(C)cccc1C [Lidocaine, reference compound]	–	–	Amount Ouabain ([2]; control (Lidocaine) line): 60 to 130 µg/kg; Arrhythmia Reversal Time ([2]; dogs or cats, control, amount compound 1-2 mg/kg): 1 to 3 min
CNC(C)C1(O)CCCCC1c1ccccc1.Cl (stereo not drawn) [XXIV, 1-(1-Methylaminoethyl)-2-phenylcyclohexanol hydrochloride]	> 100 mg/kg	> 30 mg/kg	prevention of arrhythmia by pretreatment ([2]; dogs or cats, 10 mg/kg pretreatment, then ouabain): prevented arrhythmia; Amount Ouabain [2, 8]: 140 µg/kg
CC(CN(C)C)C1(O)CCCCC1c1ccc(O)cc1 (stereo not drawn) [Example XXX, 1-(2-Dimethylamino-1-methylethyl)-2-(p-hydroxyphenyl)-cyclohexanol]	> 100 mg/kg	> 30 mg/kg	–
CC(=O)OC1(C(C)CN(C)C)CCCCC1c1ccccc1 (single isomer, unassigned; (+)) [Example X, (+)-1-(2-Dimethylamino-1-methylethyl)-2-phenylcyclohexyl acetate]	–	–	Analgesic Tests ED50 PBQ P.O. [1, 11]: > 100 mg/kg; Analgesic Tests ED50 PBQ S.C. [1, 12]: 16.5 mg/kg
CC(=O)OC1(C(C)CN(C)C)CCCCC1c1ccccc1 (single isomer, unassigned) [Example I (c), 1-(2-Dimethylamino-1-methylethyl)-2-phenylcyclohexyl acetate maleate (Major Isomer)]	–	–	Arrhythmia Reversal Time [4]: 30 min; Analgesic Tests ED50 PBQ P.O. [1, 11]: 20 mg/kg; Analgesic Tests ED50 PBQ S.C. [1, 12]: 3.8 mg/kg; Amount Ouabain [2, 8]: 85 µg/kg; ED50 [3, 9]: 10 mg/kg; ED50 [3, 10]: 40 mg/kg
CN(C)CCC1(O)CCCCC1c1ccccc1 (stereo not drawn) [Example XIV, 1-(2-Dimethylaminoethyl)-2-phenylcyclohexanol]	> 100 mg/kg	~30 mg/kg	–
CC(=O)OC1(C(C)CN2CCCCC2)CCCCC1c1ccccc1.Cl (stereo not drawn) [XII, 1-(1-Methyl-2-piperidinoethyl)-2-phenylcyclohexyl acetate hydrochloride]	~60 mg/kg	~30 mg/kg	–
CCC(=O)OC1(C(C)CN(C)C)CCCCC1c1ccccc1 (single isomer, unassigned) [Example I (a), 1-(2-Dimethylamino-1-methylethyl)-2-phenylcyclohexyl propionate maleate (Major Isomer)]	100 mg/kg	–	ED50 [3, 9]: > 40 mg/kg; ED50 [3, 10]: > 100 mg/kg
CC(N(C)C)C1(O)CCCCC1c1ccccc1.Cl (stereo not drawn) [Example XXVII, 1-(1-Dimethylaminoethyl)-2-phenylcyclohexanol hydrochloride]	> 100 mg/kg	> 100 mg/kg	–
CC(=O)OC1(C(C)CN(C)C)CCCCC1c1ccccc1 (single isomer, unassigned; (-)) [Example IX, (-)-1-(2-Dimethylamino-1-methylethyl)-2-phenylcyclohexyl acetate]	–	–	Analgesic Tests ED50 PBQ P.O. [1, 11]: 16 mg/kg; Analgesic Tests ED50 PBQ S.C. [1, 12]: 2.15 mg/kg
COc1ccc(C2CCCCC2(O)C(C)CN(C)C)cc1OC (stereo not drawn) [XXXII, 2-(3,4-Dimethoxyphenyl)-1-(2-dimethylamino-1-methylethyl)cyclohexanol p-toluenesulfonate]	> 100 mg/kg	~30 mg/kg	–
CC(=O)OC1(C(C)N(C)C)CCCCC1c1ccccc1 (stereo not drawn) [XXVIII, 1-(1-Dimethylaminoethyl)-2-phenylcyclohexyl acetate cyclohexylsulfamate]	> 30 mg/kg	> 10 mg/kg	–
CC(=O)OC1(C(C)CN2CCCC2)CCCCC1c1ccccc1.O=S(=O)(O)O (stereo not drawn) [Example XXII, 1-(1-Methyl-2-pyrrolidinoethyl)-2-phenylcyclohexyl acetate sulfate]	> 30 mg/kg	~10 mg/kg	–
